What was measured:
[1] = tested on: infarcted mice; experiment: bone marrow cell transplantation after myocardial infarction (design of Orlic et al); type: in vivo; conditions: repeated administration during the proliferation process
Source text: Myocardial infarction leads to loss of tissue and impairment of cardiac performance. The remaining myocytes are unable to reconstitute the necrotic tissue, and the post-infarcted heart deteriorates with time. Injury to a target organ is sensed by distant stem cells, which migrate to the site of damage and undergo alternate stem cell differentiation; these events promote structural and functional repair. This high degree of stem cell plasticity prompted Orlic et al (Nature 410, 701–705 (2001)) to test whether dead myocardium could be restored by transplanting bone marrow cells in infarcted mice. They sorted lineage-negative (Lin−) bone marrow cells from transgenic mice expressing enhanced green fluorescent protein by fluorescence-activated cell sorting on the basis of c-kit expression. Shortly after coronary ligation, Lin− c-kitPOS cells were injected in the contracting wall bordering the infarct. […] The developing tissue comprised proliferating myocytes and vascular structures. Their studies indicate that locally delivered bone marrow cells can generate de novo myocardium, ameliorating the outcome of coronary artery disease. […]

[2] = tested on: connexin 43 (Cx43); experiment: immunoprecipitation and immunoblot of phosphorylated connexin 43; type: cell-based; conditions: cultured H9c2 cardiomyocytes
Experimental: H9c2 cells were seeded in 24-multi well dishes in a density of 7,900 cells/cm^2 (˜15,000 cells/well) and grown for 3 days in MEM suplemented with 10% foetal calf serum (FCS) and 1000 units penicillin/1000 μg streptomycin (pen/strep) in an atmosphere of 5% CO2 and 100% humidity at 37° C.
The labelled cells were incubated in Triton X-100 lysis buffer (˜5*10^7 cells/ml) for 1 hr at 4° C. The lysate is centrifuged 30 min at 20,000*g for 30 min. The supernatant was precleared by adding 10 ul Sepharose per 200 μl supernatant. The precleared supernatant were then added 0.5–1 μg phospho-tyrosine or phospho-serine antibodies (Sigma) and incubated for 1.5 hr at 4° C. in an orbital shaker. The antibody-complex was then captured by incubation with 50 μl of a 1:1 slurry of protein G Sepharose for 1.5 hr. Finally the complex were extensively washed with 0.1% (w/v) Triton X-100, 50 mM Tris, pH 7.4, 300 mM NaCl and 5 mM EDTA.
The complexes were loaded onto a 12% SDS gel and blotted onto a PVDF membrane. The membrane is blocked with 0.1% Tween 20, 50 mM Tris, pH 7.4, 300 mM NaCl, 5% dry milk (TBST) for minimum 2 h. The membrane was subsequently incubated with connexin 43 specific antibodies (Zymed) for 1.5 h at RT and developed with ECL+ (Amersham).

For Ac-Gly-Asn-Tyr-NH2 [Compound 2], the “connexin 43 expression” value [1] was “increase in connexin 43 expression” and the “tyrosine phosphorylation of connexin 43” value [2] was “phosphorylation of Cx43 tyrosine”.

— patent US7153822B2, “Compositions and methods for modulating connexin hemichannels” (Wyeth, priority 2002, dated 2006)
